Assay results taken from PubChem BioAssay (NCI).
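Growth conditions: 96-well plates. Treatment: test compound, 48 hours, 5 concentrations. Analysis: linear interpolation between bracketing concentrations; unreached endpoints set to highest concentration. At the TGI there is no net growth.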

Tests used:
Assay in all cases: NCI anticancer screen, dose series, 48 h
786-0 renal = tested on: 786-0 renal
A498 renal = tested on: A498 renal
A549 NSCLC = tested on: A549 NSCLC
ACHN renal = tested on: ACHN renal
BT-549 breast = tested on: BT-549 breast
CAKI-1 renal = tested on: CAKI-1 renal
CCRF-CEM leukemia = tested on: CCRF-CEM leukemia
COLO 205 colon = tested on: COLO 205 colon
DU-145 prostate = tested on: DU-145 prostate
EKVX NSCLC = tested on: EKVX NSCLC
HCC-2998 colon = tested on: HCC-2998 colon
HCT-116 colon = tested on: HCT-116 colon
HCT-15 colon = tested on: HCT-15 colon
HL-60(TB) leukemia = tested on: HL-60(TB) leukemia
HOP-62 NSCLC = tested on: HOP-62 NSCLC
HOP-92 NSCLC = tested on: HOP-92 NSCLC
HS 578T breast = tested on: HS 578T breast
HT29 colon = tested on: HT29 colon
IGROV1 ovarian = tested on: IGROV1 ovarian
K-562 leukemia = tested on: K-562 leukemia
KM12 colon = tested on: KM12 colon
LOX IMVI melanoma = tested on: LOX IMVI melanoma
M14 melanoma = tested on: M14 melanoma
MCF7 breast = tested on: MCF7 breast
MDA-MB-231 breast = tested on: MDA-MB-231 breast
MDA-MB-435 = tested on: MDA-MB-435
MDA-N = tested on: MDA-N
MOLT-4 leukemia = tested on: MOLT-4 leukemia
NCI-H226 lung = tested on: NCI-H226 lung
NCI-H23 lung = tested on: NCI-H23 lung
NCI-H460 lung = tested on: NCI-H460 lung
NCI-H522 lung = tested on: NCI-H522 lung
NCI/ADR-RES ovarian = tested on: NCI/ADR-RES ovarian
OVCAR-3 ovarian = tested on: OVCAR-3 ovarian
OVCAR-4 ovarian = tested on: OVCAR-4 ovarian
OVCAR-5 ovarian = tested on: OVCAR-5 ovarian
OVCAR-8 ovarian = tested on: OVCAR-8 ovarian
PC-3 prostate = tested on: PC-3 prostate
RPMI-8226 leukemia = tested on: RPMI-8226 leukemia
RXF 393 renal = tested on: RXF 393 renal
SF-268 CNS = tested on: SF-268 CNS
SF-295 CNS = tested on: SF-295 CNS
SF-539 CNS = tested on: SF-539 CNS
SK-MEL-2 melanoma = tested on: SK-MEL-2 melanoma
SK-MEL-28 melanoma = tested on: SK-MEL-28 melanoma
SK-MEL-5 melanoma = tested on: SK-MEL-5 melanoma
SK-OV-3 ovarian = tested on: SK-OV-3 ovarian
SN12C renal = tested on: SN12C renal
SNB-19 CNS = tested on: SNB-19 CNS
SR leukemia = tested on: SR leukemia
SW-620 colon = tested on: SW-620 colon
T-47D breast = tested on: T-47D breast
TK-10 renal = tested on: TK-10 renal
U251 CNS = tested on: U251 CNS
UACC-257 melanoma = tested on: UACC-257 melanoma
UACC-62 melanoma = tested on: UACC-62 melanoma
UO-31 renal = tested on: UO-31 renal

Measured: TGI

Cc1c(C(=O)O)n2cnnc2c2ccccc12
> 100 µM: 786-0 renal | A498 renal | A549 NSCLC | ACHN renal | BT-549 breast | CAKI-1 renal | CCRF-CEM leukemia | COLO 205 colon | DU-145 prostate | EKVX NSCLC | HCC-2998 colon | HCT-116 colon | HCT-15 colon | HL-60(TB) leukemia | HOP-62 NSCLC | HOP-92 NSCLC | HS 578T breast | HT29 colon | IGROV1 ovarian | K-562 leukemia | KM12 colon | LOX IMVI melanoma | M14 melanoma | MCF7 breast | MDA-MB-231 breast | MDA-MB-435 | MDA-N | MOLT-4 leukemia | NCI-H226 lung | NCI-H23 lung | NCI-H460 lung | NCI-H522 lung | NCI/ADR-RES ovarian | OVCAR-3 ovarian | OVCAR-4 ovarian | OVCAR-5 ovarian | OVCAR-8 ovarian | PC-3 prostate | RPMI-8226 leukemia | RXF 393 renal | SF-268 CNS | SF-295 CNS | SF-539 CNS | SK-MEL-2 melanoma | SK-MEL-28 melanoma | SK-MEL-5 melanoma | SK-OV-3 ovarian | SN12C renal | SNB-19 CNS | SR leukemia | SW-620 colon | T-47D breast | TK-10 renal | U251 CNS | UACC-257 melanoma | UACC-62 melanoma | UO-31 renal
